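Results reflect a 48-hour exposure of cells in 96-well plates to compound at five concentrations. The concentration for full growth arrest is given as TGI.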
Assays:
Test in all cases: inhibition of tumour cell growth, NCI panel, 48 h
SF-295 CNS = tested on: SF-295 CNS
A549 NSCLC = tested on: A549 NSCLC
LOX IMVI melanoma = tested on: LOX IMVI melanoma
OVCAR-5 ovarian = tested on: OVCAR-5 ovarian
SF-268 CNS = tested on: SF-268 CNS
HCT-15 colon = tested on: HCT-15 colon
SNB-75 CNS = tested on: SNB-75 CNS
HCC-2998 colon = tested on: HCC-2998 colon
OVCAR-3 ovarian = tested on: OVCAR-3 ovarian
MCF7 breast = tested on: MCF7 breast
SK-OV-3 ovarian = tested on: SK-OV-3 ovarian
CAKI-1 renal = tested on: CAKI-1 renal
HS 578T breast = tested on: HS 578T breast
EKVX NSCLC = tested on: EKVX NSCLC
CCRF-CEM leukemia = tested on: CCRF-CEM leukemia
NCI-H23 lung = tested on: NCI-H23 lung
KM12 colon = tested on: KM12 colon
M14 melanoma = tested on: M14 melanoma
OVCAR-8 ovarian = tested on: OVCAR-8 ovarian
SF-539 CNS = tested on: SF-539 CNS
RPMI-8226 leukemia = tested on: RPMI-8226 leukemia
DU-145 prostate = tested on: DU-145 prostate
HCT-116 colon = tested on: HCT-116 colon
UACC-62 melanoma = tested on: UACC-62 melanoma
UACC-257 melanoma = tested on: UACC-257 melanoma
SN12C renal = tested on: SN12C renal
HOP-92 NSCLC = tested on: HOP-92 NSCLC
T-47D breast = tested on: T-47D breast
SNB-19 CNS = tested on: SNB-19 CNS
NCI/ADR-RES ovarian = tested on: NCI/ADR-RES ovarian
HOP-62 NSCLC = tested on: HOP-62 NSCLC
SK-MEL-2 melanoma = tested on: SK-MEL-2 melanoma
A498 renal = tested on: A498 renal
K-562 leukemia = tested on: K-562 leukemia
COLO 205 colon = tested on: COLO 205 colon
U251 CNS = tested on: U251 CNS
SK-MEL-5 melanoma = tested on: SK-MEL-5 melanoma
SW-620 colon = tested on: SW-620 colon
SK-MEL-28 melanoma = tested on: SK-MEL-28 melanoma
IGROV1 ovarian = tested on: IGROV1 ovarian
PC-3 prostate = tested on: PC-3 prostate
NCI-H226 lung = tested on: NCI-H226 lung
MDA-MB-435 = tested on: MDA-MB-435
786-0 renal = tested on: 786-0 renal
TK-10 renal = tested on: TK-10 renal
MALME-3M melanoma = tested on: MALME-3M melanoma
BT-549 breast = tested on: BT-549 breast
MDA-MB-231 breast = tested on: MDA-MB-231 breast
NCI-H460 lung = tested on: NCI-H460 lung
RXF 393 renal = tested on: RXF 393 renal
MDA-N = tested on: MDA-N
OVCAR-4 ovarian = tested on: OVCAR-4 ovarian
ACHN renal = tested on: ACHN renal
HL-60(TB) leukemia = tested on: HL-60(TB) leukemia
UO-31 renal = tested on: UO-31 renal
SR leukemia = tested on: SR leukemia
MOLT-4 leukemia = tested on: MOLT-4 leukemia
NCI-H522 lung = tested on: NCI-H522 lung
HT29 colon = tested on: HT29 colon

In the case of `CCOC(=O)c1c2ccccc2n2c(=O)n(C)nnc12`, the TGI (SF-295 CNS) is reported as greater than 100 µM, the TGI (A549 NSCLC) is reported as greater than 100 µM and the TGI (LOX IMVI melanoma) is reported as greater than 100 µM. The TGI (OVCAR-5 ovarian) was greater than 100 µM, the TGI (SF-268 CNS) was greater than 100 µM and the TGI (HCT-15 colon) was greater than 100 µM. It also gave a TGI (SNB-75 CNS) greater than 100 µM, a TGI (HCC-2998 colon) greater than 100 µM and a TGI (OVCAR-3 ovarian) greater than 100 µM. It also gave a TGI (MCF7 breast) greater than 100 µM, a TGI (SK-OV-3 ovarian) greater than 100 µM and a TGI (CAKI-1 renal) greater than 100 µM. For the same compound, the TGI (HS 578T breast) was greater than 100 µM, the TGI (EKVX NSCLC) was greater than 100 µM and the TGI (CCRF-CEM leukemia) was greater than 100 µM. For the same compound, the TGI (NCI-H23 lung) was greater than 100 µM, the TGI (KM12 colon) was greater than 100 µM and the TGI (M14 melanoma) was greater than 100 µM. It also gave a TGI (OVCAR-8 ovarian) greater than 100 µM, a TGI (SF-539 CNS) greater than 100 µM and a TGI (RPMI-8226 leukemia) greater than 100 µM. For the same compound, the TGI (DU-145 prostate) was greater than 100 µM, the TGI (HCT-116 colon) was greater than 100 µM and the TGI (UACC-62 melanoma) was greater than 100 µM. For the same compound, the TGI (UACC-257 melanoma) was greater than 100 µM, the TGI (SN12C renal) was greater than 100 µM and the TGI (HOP-92 NSCLC) was greater than 100 µM. The TGI (T-47D breast) was greater than 100 µM, the TGI (SNB-19 CNS) was greater than 100 µM and the TGI (NCI/ADR-RES ovarian) was greater than 100 µM. The TGI (HOP-62 NSCLC) was greater than 100 µM, the TGI (SK-MEL-2 melanoma) was greater than 100 µM and the TGI (A498 renal) was greater than 100 µM. For the same compound, the TGI (K-562 leukemia) was greater than 100 µM, the TGI (COLO 205 colon) was greater than 100 µM and the TGI (U251 CNS) was greater than 100 µM. For the same compound, the TGI (SK-MEL-5 melanoma) was greater than 100 µM, the TGI (SW-620 colon) was greater than 100 µM and the TGI (SK-MEL-28 melanoma) was greater than 100 µM. The TGI (IGROV1 ovarian) was greater than 100 µM, the TGI (PC-3 prostate) was greater than 100 µM and the TGI (NCI-H226 lung) was greater than 100 µM. For the same compound, the TGI (MDA-MB-435) was greater than 100 µM, the TGI (786-0 renal) was greater than 100 µM and the TGI (TK-10 renal) was greater than 100 µM. The TGI (MALME-3M melanoma) was greater than 100 µM, the TGI (BT-549 breast) was greater than 100 µM and the TGI (MDA-MB-231 breast) was greater than 100 µM. For the same compound, the TGI (NCI-H460 lung) was greater than 100 µM, the TGI (RXF 393 renal) was 99.1 µM and the TGI (MDA-N) was greater than 100 µM. For the same compound, the TGI (OVCAR-4 ovarian) was greater than 100 µM, the TGI (ACHN renal) was greater than 100 µM and the TGI (HL-60(TB) leukemia) was greater than 100 µM. It also gave a TGI (UO-31 renal) greater than 100 µM and a TGI (SR leukemia) greater than 90.7 µM.
In the case of `Cc1ccc(-c2n[nH]c(=O)n2N)cc1`, the TGI (SF-295 CNS) is reported as greater than 100 µM, the TGI (A549 NSCLC) is reported as greater than 100 µM and the TGI (LOX IMVI melanoma) is reported as greater than 100 µM. It also gave a TGI (OVCAR-5 ovarian) greater than 100 µM, a TGI (SF-268 CNS) greater than 100 µM and a TGI (HCT-15 colon) greater than 100 µM. The TGI (SNB-75 CNS) was greater than 100 µM, the TGI (HCC-2998 colon) was greater than 100 µM and the TGI (OVCAR-3 ovarian) was greater than 100 µM. It also gave a TGI (MCF7 breast) greater than 100 µM, a TGI (SK-OV-3 ovarian) greater than 100 µM and a TGI (CAKI-1 renal) greater than 100 µM. The TGI (HS 578T breast) was greater than 100 µM, the TGI (EKVX NSCLC) was greater than 100 µM and the TGI (CCRF-CEM leukemia) was greater than 100 µM. For the same compound, the TGI (NCI-H23 lung) was greater than 100 µM, the TGI (KM12 colon) was greater than 100 µM and the TGI (M14 melanoma) was greater than 100 µM. For the same compound, the TGI (OVCAR-8 ovarian) was greater than 100 µM, the TGI (SF-539 CNS) was greater than 100 µM and the TGI (RPMI-8226 leukemia) was greater than 100 µM. The TGI (DU-145 prostate) was greater than 100 µM, the TGI (HCT-116 colon) was greater than 100 µM and the TGI (UACC-62 melanoma) was greater than 100 µM. It also gave a TGI (UACC-257 melanoma) greater than 100 µM, a TGI (SN12C renal) greater than 100 µM and a TGI (HOP-92 NSCLC) greater than 100 µM. It also gave a TGI (T-47D breast) greater than 100 µM, a TGI (SNB-19 CNS) greater than 100 µM and a TGI (NCI/ADR-RES ovarian) greater than 100 µM. The TGI (HOP-62 NSCLC) was greater than 100 µM, the TGI (SK-MEL-2 melanoma) was greater than 100 µM and the TGI (MOLT-4 leukemia) was greater than 100 µM. The TGI (A498 renal) was greater than 100 µM, the TGI (K-562 leukemia) was greater than 100 µM and the TGI (COLO 205 colon) was greater than 100 µM. The TGI (U251 CNS) was greater than 100 µM, the TGI (NCI-H522 lung) was greater than 100 µM and the TGI (SK-MEL-5 melanoma) was greater than 100 µM. It also gave a TGI (SW-620 colon) greater than 100 µM, a TGI (SK-MEL-28 melanoma) greater than 100 µM and a TGI (HT29 colon) greater than 100 µM. It also gave a TGI (IGROV1 ovarian) greater than 100 µM, a TGI (PC-3 prostate) greater than 100 µM and a TGI (NCI-H226 lung) greater than 100 µM. The TGI (MDA-MB-435) was greater than 100 µM, the TGI (786-0 renal) was greater than 100 µM and the TGI (TK-10 renal) was greater than 100 µM. It also gave a TGI (MALME-3M melanoma) greater than 100 µM, a TGI (BT-549 breast) greater than 100 µM and a TGI (MDA-MB-231 breast) greater than 100 µM. The TGI (NCI-H460 lung) was greater than 100 µM, the TGI (MDA-N) was greater than 100 µM and the TGI (OVCAR-4 ovarian) was greater than 100 µM. The TGI (ACHN renal) was greater than 100 µM, the TGI (HL-60(TB) leukemia) was greater than 100 µM and the TGI (UO-31 renal) was greater than 100 µM. For the same compound, the TGI (SR leukemia) was greater than 100 µM.
